Experimental data: patent US12576115B2, “Bacterial compositions for treating and preventing halitosis” (Imvela Corp., priority 2023, dated 2026)

Experiments:
[1] = pH reduction of an environment by bacterial strain (Table 1, (b)); conditions: capable of reducing the pH of an environment from 7.5 or higher to less than 7.5
Description: (§1) Exemplary bacterial strains determined to be capable of (b) reducing the pH of an environment from 7.5 or higher to less than 7.5; (c) reducing the abundance of one or more VSCs in an environment having a pH of less than 7.5; and/or (d) enhances the reduction of one or more VSCs by another bacterial strain in an environment with a pH of 7.5 or higher, are listed below in Table 1.

[2] = system: volatile sulfur compounds (VSCs); experiment: VSC reduction in an environment having a pH of less than 7.5 (Table 1, (c)); conditions: capable of reducing the abundance of one or more VSCs in an environment having a pH of less than 7.5
Description: as §1
Some bacterial strains of compositions, nutritional supplements, dental supplements, and food products were identified based on the ability to reduce the abundance of volatile sulfur compounds (VSCs) in an environment, and/or inhibit the production of VSCs by other microorganisms in the environment. VSCs are associated with the unpleasant odor of breath of subjects with halitosis, and reduction in VSC abundance (e.g., by VSC metabolism or inhibition of VSC production) is expected to alleviate this symptom of halitosis. Non-limiting examples of such VSCs include hydrogen sulfide, methyl mercaptan, and dimethyl sulfide, all of which give off strong and unpleasant odors.

| Substance | (b) pH reduction [1] | (c) VSC reduction [2] |
| --- | --- | --- |
| Bifidobacterium longum | Yes |  |
| Lactobacillus acidophilus | Yes | Yes |
| Pediococcus acidilactici | Yes | Yes |
